In patent publication US20190055267A1, “ORGANOTRIFLUOROBORATE MIMICS OF AMINO ACIDS AND USES THEREOF” (The United States of America, as represented by the …, priority 2015, published 2019):
Like-named read-outs stand apart in the source and are kept apart here.

How the values were obtained:
[1] = Solvolysis of the BF3 moiety in phosphate buffer; type: physicochemical
Source text: See also, Liu et al., Chem. Eur. J., 2015, 21:3924-8, incorporated herein by reference in its entirety.

[2] = COOH group of the corresponding amino acid; cited from earlier work
amino acid transporters [3] = assay: Uptake-concentration kinetics, Michaelis-Menten fitting, in U87MG cells; type: cell-based, human; details: 60 min at 37° C. in PBS, read-out: KM/μM, ^18F-AA-BF3 (BAA)
Protocol: The uptake of BAA in U87MG cells was measured at increasing concentrations in phosphate-buffered saline (PBS) and plotted against the concentration of BAA. […] The KM values of ^18F-BAAs were calculated by Michaelis-Menten fitting using Igor Pro 6.22.
The uptake-concentration correlations (FIGS. 12-15) fit well with Michaelis-Menten kinetics, giving the values of Table 4.

U87MG cells = assay: In vitro competitive inhibition of boramino acid uptake by natural amino acids and transporter inhibitors; details: for inhibition of uptake by sodium free medium: U87MG cells
Protocol: The U87MG cells were in Dulbecco modified Eagle medium and Minimum Essential Medium under a humidified atmosphere with 5% CO2 at 37° C. The culture media was supplemented with 10% fetal bovine serum, 100 U/mL penicillin, and 100 μg/mL streptomycin. […] Prior to incubation, the cells were washed with phosphate-buffered saline (PBS). […] The cells were then washed 3 times with ice-cold PBS, quenched with 0.1 M of NaOH and the cell-bound radioactivity was counted using a gamma counter. Uptake is defined as percentage of added radioactive dose (% AD).
The control is incubation with BAA only without competitor.

UM22B xenograft = assay: PET imaging and biodistribution in UM22B tumor-bearing mice; type: in vivo; details: for bone uptake: PET, tumor-bearing mice; for Average Uptake (% ID/g), blood pool / Average Uptake (% ID/g), hottest voxel cluster of tumor / Average Uptake (% ID/g), kidney / Average Uptake (% ID/g), liver / Average Uptake (% ID/g), muscle / Average Uptake (% ID/g), whole tumor region of interest: UM22B-bearing mice, 120 min after injection
Protocol: All imaging studies were performed as follows. PET scans were obtained and image analysis were performed using an Inveon small-animal PET scanner (Malvern, Pa., USA). About 3.7 MBq of ^18F-AA were administered via tail vein injection under isoflurane anesthesia. […] For dynamic acquisition, 60 min dynamic PET scans were acquired, followed by a late-time-point scans at 2 h after tracer injection. With the acute inflammation model, 10-min static PET images were acquired at 1 h and 2 h after injection. The images were reconstructed using a 3-dimensional ordered subset expectation maximum algorithm, and no correction was applied for attenuation or scatter. For each scan, regions of interest (ROIs) were drawn using vendor software (ASI Pro 5.2.4.0; Siemens Medical Solutions) on decay-corrected whole-body coronal images. The radioactivity concentrations (accumulation) within the tumor, heart, muscle, liver, brain, and kidneys were obtained from mean pixel values within the multiple ROI volumes and then converted to megabecquerel per milliliter. These values were then divided by the administered activity to obtain (assuming a tissue density of 1 g/mL) an image-ROI-derived percentage injected dose per gram (% ID/g).

U87MG human glioma cells = type: cell-based
UM22B cells = assay: Efflux of radioactivity from cells preloaded with 18F-Leu-BF3; type: cell-based; details: UM22B cells loaded 120 min, 120 min post medium incubation
Protocol: ^18F-Leu-BF3 was first incubated with UM22B cells in PBS (phosphate buffered saline) for 120 min then was removed, followed by rapidly rinsing the cells with PBS three times. The cancer cells were incubated in medium essential medium for 10, 30, 60, and 120 min, and the residual radioactivity was measured (FIG. 16). The decreasing residual radioactivity is time-dependent, and most of the radioactive boramino acid was excreted from the cell in 90 min (less than 2% left at 120 min post medium incubation).
The radioactivity from efflux was further analyzed by re-injection into HPLC at 120 min (efflux: excreted from cell; influx: accumulated into cell). Only one peak was observed, and the elution time was corroborative to that for ^18F-Leu-BF3. The elution time here was 15 min, whereas in FIG. 1 the time was 12.5 min. After the data of FIG. 1 was obtained, maintenance was performed on the HPLC, after which the elution time of ^18F-Leu-BF3 on the HPLC was 15 min.

[4] = Metabolic stability in mouse plasma, HPLC analysis; type: in vitro ADME; details: mouse plasma at 37° C. for 30 and 120 min
Protocol: To further evaluate the metabolic stability of boramino acid, ^18F-Leu-BF3 was incubated with mouse plasma at 37° C. for 30 and 120 min. After incubation, most of the radioactivity was extracted from the plasma and followed by HPLC analysis.

UM22B xenografts [5] = assay: ICP analysis of boron in tissues after injection; type: in vivo, mice; details: 60 min after injection of 10 mg
Protocol: Tumor-bearing mice were sacrificed at 60 min after injection of 10 mg of Leu-BF3. UM22B xenografts are dissolve into nitric acid and the resulting solution are analyzed by ICP.

HEK293 cells = assay: Cell uptake of 18F-Leu-BF3 in HEK293 cells; type: cell-based; details: 120 min post incubation
UM22B xenografts [6] = assay: PET imaging of 18F-Leu-BF3 co-injected with unlabeled Leu-BF3 (BNCT boron delivery); type: in vivo, mice
Protocol: All imaging studies were performed as follows. PET scans were obtained and image analysis were performed using an Inveon small-animal PET scanner (Malvern, Pa., USA). About 3.7 MBq of ^18F-AA were administered via tail vein injection under isoflurane anesthesia. For static acquisition, 10-min static PET scans were acquired at 30, 60 and 120 min after injection. For dynamic acquisition, 60 min dynamic PET scans were acquired, followed by a late-time-point scans at 2 h after tracer injection. With the acute inflammation model, 10-min static PET images were acquired at 1 h and 2 h after injection. The images were reconstructed using a 3-dimensional ordered subset expectation maximum algorithm, and no correction was applied for attenuation or scatter. For each scan, regions of interest (ROIs) were drawn using vendor software (ASI Pro 5.2.4.0; Siemens Medical Solutions) on decay-corrected whole-body coronal images. The radioactivity concentrations (accumulation) within the tumor, heart, muscle, liver, brain, and kidneys were obtained from mean pixel values within the multiple ROI volumes and then converted to megabecquerel per milliliter. These values were then divided by the administered activity to obtain (assuming a tissue density of 1 g/mL) an image-ROI-derived percentage injected dose per gram (% ID/g). […]

[7] = In vivo metabolic stability, HPLC analysis of urine and blood samples; details: living animals
Protocol: To further evaluate its in vivo metabolic stability, ^18F-Leu-BF3 was also tested in living animals and followed by HPLC analysis of urine and blood samples.

inflammatory lesion = assay: PET imaging in the acute inflammation model; type: in vivo, mice; details: compared with 18F-FDG (FIGS. 26-28)
Protocol: All imaging studies were performed as follows. PET scans were obtained and image analysis were performed using an Inveon small-animal PET scanner (Malvern, Pa., USA). About 3.7 MBq of ^18F-AA were administered via tail vein injection under isoflurane anesthesia. For static acquisition, 10-min static PET scans were acquired at 30, 60 and 120 min after injection. For dynamic acquisition, 60 min dynamic PET scans were acquired, followed by a late-time-point scans at 2 h after tracer injection. With the acute inflammation model, 10-min static PET images were acquired at 1 h and 2 h after injection. The images were reconstructed using a 3-dimensional ordered subset expectation maximum algorithm, and no correction was applied for attenuation or scatter. For each scan, regions of interest (ROIs) were drawn using vendor software (ASI Pro 5.2.4.0; Siemens Medical Solutions) on decay-corrected whole-body coronal images. The radioactivity concentrations (accumulation) within the tumor, heart, muscle, liver, brain, and kidneys were obtained from mean pixel values within the multiple ROI volumes and then converted to megabecquerel per milliliter. These values were then divided by the administered activity to obtain (assuming a tissue density of 1 g/mL) an image-ROI-derived percentage injected dose per gram (% ID/g).

amino acid transporters [8] = details: natural amino acid, comparison value; read-out: KM/μM, AA; cited from earlier work
system P transporters = details: read-out: KM value, cited from earlier work
[9] = time-activity curves, UM22B tumor-bearing mice (FIGS. 21 and 22)

F[B-](F)(F)[C@@H]1CCC[NH2+]1 [Pro-BF3]
t1/2/min ([1]; half-life in phosphate buffer at pH 7.4): 210.58 h | pKB-F ([1]; pK of the first fluorine of the BF3− moiety): 4.2615 | k (solv)/min^−1 ([1]; rate of solvolysis, phosphate buffer pH 7.4): 5.476e-05 min⁻¹ | pka of corres. COOH [2]: 1.95

C[C@H]([NH3+])[B-](F)(F)F [^18F-Ala-BF3]
Km (amino acid transporters [3]): 468 ± 87.2 µM

C[C@H]([NH3+])[B-](F)(F)[18F] [^18F-Ala-BF3]
inhibition of uptake by sodium free medium (U87MG cells; 18F-Ala-BF3, 60 min incubation): 91.1%

CC(C)C[C@H]([NH3+])[B-](F)(F)F [^18F-Leu-BF3]
Km (amino acid transporters [3]): 25.9 ± 2.4 µM

CC(C)C[C@H]([NH3+])[B-](F)(F)[18F] [^18F-Leu-BF3]
bone uptake (UM22B xenograft): undetectable | Average Uptake (% ID/g), blood pool (UM22B xenograft): 0.47 ± 0.12 % ID/g | Average Uptake (% ID/g), hottest voxel cluster of tumor (UM22B xenograft): 12.46 ± 3.0 % ID/g | Average Uptake (% ID/g), kidney (UM22B xenograft): 2.32 ± 0.39 % ID/g | Average Uptake (% ID/g), liver (UM22B xenograft): 0.83 ± 0.16 % ID/g | Average Uptake (% ID/g), muscle (UM22B xenograft): 0.09 ± 0.03 % ID/g | Average Uptake (% ID/g), whole tumor region of interest (UM22B xenograft): 6.72 ± 0.91 % ID/g | tumor uptake, peak voxel cluster value (UM22B xenograft; comparison of 11C-Leu and 18F-Leu-BF3, one particular mouse (FIGS. 24 and 25)): ~6.5 % ID/g | tumor uptake, peak voxel cluster value (UM22B xenograft; [9]): ~13 % ID/g | cell uptake (U87MG human glioma cells): ~7.5 % AD | residual radioactivity left in cells (UM22B cells): less than 2% | defluoridation from boramino acid to boronic acid [4]: almost negligible | boron in tumor (UM22B xenografts [5]; ICP analysis): 34.5 ppm | tumor-to-brain ratio (UM22B xenografts [5]; boron by ICP analysis): 13.5 | cell uptake (HEK293 cells): 10.4 % AD | tumor uptake (UM22B xenografts [6]; 60 min after injection of <1 μg, 200 μg, 1 mg, 5 mg and 25 mg, by PET imaging): ~10 % ID/g | boron concentration in tumor (UM22B xenografts [6]; 60 min post-injection, based on calculation): up to 30 ppm | in vivo metabolic stability [7]: neither participates in protein synthesis nor loses fluoride during in vivo circulation | uptake in inflammatory lesion (inflammatory lesion): almost negligible

[NH3+][C@@H](Cc1ccccc1)[B-](F)(F)F [^18F-Phe-BF3]
Km (amino acid transporters [3]): 17.6 ± 4.2 µM

[NH3+][C@@H](Cc1ccccc1)[B-](F)(F)[18F] [^18F-Phe-BF3]
bone uptake (UM22B xenograft): undetectable | Average Uptake (% ID/g), blood pool (UM22B xenograft): 2.46 ± 0.50 % ID/g | Average Uptake (% ID/g), hottest voxel cluster of tumor (UM22B xenograft): 13.29 ± 1.18 % ID/g | Average Uptake (% ID/g), kidney (UM22B xenograft): 2.13 ± 0.34 % ID/g | Average Uptake (% ID/g), liver (UM22B xenograft): 2.67 ± 0.44 % ID/g | Average Uptake (% ID/g), muscle (UM22B xenograft): 2.31 ± 0.44 % ID/g | Average Uptake (% ID/g), whole tumor region of interest (UM22B xenograft): 7.31 ± 0.78 % ID/g | tumor uptake, peak voxel cluster value (UM22B xenograft; [9]): approximately 15 % ID/g

F[B-](F)(F)[C@@H]1CCC[NH2+]1 [^18F-Pro-BF3]
Km (amino acid transporters [3]): 65.6 ± 45.2 µM

F[B-](F)([18F])[C@@H]1CCC[NH2+]1 [^18F-Pro-BF3]
inhibition of uptake by sodium free medium (U87MG cells; 18F-Pro-BF3, 60 min incubation): 76.2%

O=C(O)[C@@H]1CCCN1 [proline]
Km (amino acid transporters [8]): 67 ± 11.5 µM | inhibition at 25000 µM (U87MG cells; Homo sapiens, U-87 MG, 1 h, read-out: inhibition of uptake of 18F-Pro-BF3): ~80% | Km (system P transporters; system P transporter with high KM): ~5000 µM | Km (system P transporters; system P transporter with low KM): ~100 µM

^18F-fluorodeoxyglucose [^18F-FDG, reference compound]
cell uptake (U87MG human glioma cells): less than 5 % AD
